Measured values taken from ChEMBL document CHEMBL5608247, “Development of a First-in-Class DNMT1/HDAC Inhibitor with Improved Therapeutic Potential and Potentiated Antitumor Immunity” (J Med Chem, 2024).

Key:
[1] = molecular target: Histone deacetylase; test: Inhibition of HDAC extracted from human HeLa cell nucleus using Boc-Lys(Ac)-AMC as substrate preincubated for 5 mins followed by substrate addition measured after 30 mins by fluorescence based assay; format: subcellular
[2] = molecular target: T1, DNA (cytosine-5)-methyltransferase 3B (Homo sapiens, UniProt Q9UBC3); test: Inhibition of DNMT3B (unknown origin)
[3] = molecular target: T2, DNA (cytosine-5)-methyltransferase 1 (Homo sapiens, UniProt P26358); test: Induction of thermal stabilization of N-terminal 6xHis-FLAG-tagged […] human DNMT1 (698 to 1616 residues) extracted from Sf9 cells assessed as change in melting temperature at 10 uM by SYPRO Orange dye based PTS assay (reference value: 0.0 degreeC); format: cell-based
Target sequence in this assay (P26358 whole entry, the tested form may be a part): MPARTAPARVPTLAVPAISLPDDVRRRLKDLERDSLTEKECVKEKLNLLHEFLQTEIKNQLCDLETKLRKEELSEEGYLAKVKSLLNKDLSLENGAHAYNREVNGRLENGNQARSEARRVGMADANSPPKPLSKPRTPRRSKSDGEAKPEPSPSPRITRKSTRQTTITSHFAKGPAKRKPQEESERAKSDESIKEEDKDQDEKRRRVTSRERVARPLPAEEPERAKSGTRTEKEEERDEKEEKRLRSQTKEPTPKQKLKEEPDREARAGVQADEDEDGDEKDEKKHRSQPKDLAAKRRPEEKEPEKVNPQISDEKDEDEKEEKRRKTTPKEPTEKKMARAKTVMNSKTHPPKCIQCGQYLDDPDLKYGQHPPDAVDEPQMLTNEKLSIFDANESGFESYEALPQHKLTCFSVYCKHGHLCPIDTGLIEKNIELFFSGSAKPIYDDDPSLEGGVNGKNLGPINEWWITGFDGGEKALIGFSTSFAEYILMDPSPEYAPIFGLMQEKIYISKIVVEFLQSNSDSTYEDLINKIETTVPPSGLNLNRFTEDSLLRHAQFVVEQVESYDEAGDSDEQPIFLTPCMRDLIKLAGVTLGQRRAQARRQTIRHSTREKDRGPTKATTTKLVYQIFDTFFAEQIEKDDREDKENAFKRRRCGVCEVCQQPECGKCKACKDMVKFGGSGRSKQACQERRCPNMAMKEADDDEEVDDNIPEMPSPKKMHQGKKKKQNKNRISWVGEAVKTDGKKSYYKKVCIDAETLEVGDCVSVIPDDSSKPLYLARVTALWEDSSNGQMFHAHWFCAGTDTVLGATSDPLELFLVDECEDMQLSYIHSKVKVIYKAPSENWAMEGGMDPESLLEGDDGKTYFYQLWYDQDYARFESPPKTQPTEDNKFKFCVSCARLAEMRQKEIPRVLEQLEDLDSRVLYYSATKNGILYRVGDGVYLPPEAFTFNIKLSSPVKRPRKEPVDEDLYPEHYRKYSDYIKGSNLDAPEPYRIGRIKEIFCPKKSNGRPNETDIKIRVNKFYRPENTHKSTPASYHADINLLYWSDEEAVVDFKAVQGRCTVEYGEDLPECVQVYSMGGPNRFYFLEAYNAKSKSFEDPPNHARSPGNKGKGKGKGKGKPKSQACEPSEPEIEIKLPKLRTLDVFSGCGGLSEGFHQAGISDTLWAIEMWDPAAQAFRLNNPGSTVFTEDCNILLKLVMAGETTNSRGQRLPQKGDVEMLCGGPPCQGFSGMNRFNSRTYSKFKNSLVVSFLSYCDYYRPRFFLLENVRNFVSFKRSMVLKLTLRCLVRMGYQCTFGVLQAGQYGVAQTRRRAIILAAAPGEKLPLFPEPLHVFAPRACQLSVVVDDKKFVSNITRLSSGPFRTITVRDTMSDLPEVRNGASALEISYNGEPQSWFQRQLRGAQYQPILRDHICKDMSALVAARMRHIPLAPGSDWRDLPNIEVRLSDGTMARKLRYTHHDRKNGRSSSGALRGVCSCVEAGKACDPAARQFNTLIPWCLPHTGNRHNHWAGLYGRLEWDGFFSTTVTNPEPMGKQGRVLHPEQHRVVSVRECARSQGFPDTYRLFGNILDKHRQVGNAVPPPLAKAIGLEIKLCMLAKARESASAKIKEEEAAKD

[4] = molecular target: T2, DNA (cytosine-5)-methyltransferase 1; test: Inhibition of NLuc-fused DNMT1 expressed hypomorphic in human HCT-116 cells assessed as TSG repoter activation at 3 uM incubated for 72 hrs by Nano-Glo Luciferase assay; format: cell-based
Target sequence in this assay (P26358 whole entry, looked up, the tested form may be a part): as the sequence (P26358 whole entry, the tested form may be a part) above

[5] = system: MV4-11; test: Antitumor activity against human MV4-11 cells xenografted in BALB/c nude mouse at 45 mg/kg, ip qd treated for 19 days relative to control; format: functional; details: MV4-11, 456 h, time 19 day, read-out: TGI
[6] = system: MV4-11; test: Antiproliferative activity against human MV4-11 cells incubated for 96 hrs by CCK8 assay; format: functional, cell-based; details: MV4-11, 96 h
[7] = molecular target: Histone deacetylase 1 (Homo sapiens, UniProt Q13547); test: Inhibition of HDAC1 (unknown origin)
Chain of Histone deacetylase 1 (Q13547 whole entry): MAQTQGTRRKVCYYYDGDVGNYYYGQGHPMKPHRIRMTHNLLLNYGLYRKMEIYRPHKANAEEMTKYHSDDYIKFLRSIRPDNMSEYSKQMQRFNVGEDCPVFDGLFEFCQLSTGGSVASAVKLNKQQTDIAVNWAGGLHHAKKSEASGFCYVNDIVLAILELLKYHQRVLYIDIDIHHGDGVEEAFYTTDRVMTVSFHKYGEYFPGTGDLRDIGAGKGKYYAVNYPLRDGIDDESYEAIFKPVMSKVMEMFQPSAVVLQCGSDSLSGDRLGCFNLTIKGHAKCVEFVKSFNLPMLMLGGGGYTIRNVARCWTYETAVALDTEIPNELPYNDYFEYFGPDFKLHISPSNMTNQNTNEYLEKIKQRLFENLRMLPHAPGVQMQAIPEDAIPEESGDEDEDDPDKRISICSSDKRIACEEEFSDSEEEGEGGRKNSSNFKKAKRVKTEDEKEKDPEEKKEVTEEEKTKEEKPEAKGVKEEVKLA

[8] = molecular target: DNA (cytosine-5)-methyltransferase 3A (Homo sapiens) (UniProt Q9Y6K1); test: Inhibition of DNMT3A (unknown origin) at 100 uM relative to control
Chain of DNA (cytosine-5)-methyltransferase 3A (Homo sapiens) (Q9Y6K1 whole entry, looked up): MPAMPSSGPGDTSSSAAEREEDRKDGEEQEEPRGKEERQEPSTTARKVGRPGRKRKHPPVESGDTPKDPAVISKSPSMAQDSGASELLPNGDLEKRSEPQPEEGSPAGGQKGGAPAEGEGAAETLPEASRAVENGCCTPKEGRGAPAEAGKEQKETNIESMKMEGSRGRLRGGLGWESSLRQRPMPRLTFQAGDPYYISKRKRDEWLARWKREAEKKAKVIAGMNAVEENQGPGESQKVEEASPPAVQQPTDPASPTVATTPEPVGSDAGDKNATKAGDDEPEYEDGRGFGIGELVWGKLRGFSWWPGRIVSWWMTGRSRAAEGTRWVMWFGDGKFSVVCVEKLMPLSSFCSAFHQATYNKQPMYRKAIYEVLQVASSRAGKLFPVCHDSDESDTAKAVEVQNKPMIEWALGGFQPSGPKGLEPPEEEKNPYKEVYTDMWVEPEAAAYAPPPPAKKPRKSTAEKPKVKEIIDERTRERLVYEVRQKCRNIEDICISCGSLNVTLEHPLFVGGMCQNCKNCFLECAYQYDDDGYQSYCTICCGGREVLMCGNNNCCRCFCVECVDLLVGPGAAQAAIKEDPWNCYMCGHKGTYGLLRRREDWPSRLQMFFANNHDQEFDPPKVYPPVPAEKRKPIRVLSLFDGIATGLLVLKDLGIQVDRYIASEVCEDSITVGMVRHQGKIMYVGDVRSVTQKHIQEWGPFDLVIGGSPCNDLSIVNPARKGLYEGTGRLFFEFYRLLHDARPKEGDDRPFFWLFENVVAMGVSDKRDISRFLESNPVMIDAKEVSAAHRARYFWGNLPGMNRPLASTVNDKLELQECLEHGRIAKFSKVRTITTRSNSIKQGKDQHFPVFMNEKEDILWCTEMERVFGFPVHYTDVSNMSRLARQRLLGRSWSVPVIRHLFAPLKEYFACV

[9] = molecular target: T2, DNA (cytosine-5)-methyltransferase 1; test: Inhibition of DNMT1 (unknown origin) at 100 uM relative to control
Target sequence in this assay (P26358 whole entry, the tested form may be a part): as the sequence (P26358 whole entry, the tested form may be a part) above

[10] = molecular target: T1, DNA (cytosine-5)-methyltransferase 3B; test: Inhibition of DNMT3B (unknown origin) at 100 uM relative to control
[11] = molecular target: T3, Protein deacetylase HDAC6 (Homo sapiens, UniProt Q9UBN7); test: Inhibition of HDAC6 (unknown origin)
T3 sequence (Q9UBN7 whole entry): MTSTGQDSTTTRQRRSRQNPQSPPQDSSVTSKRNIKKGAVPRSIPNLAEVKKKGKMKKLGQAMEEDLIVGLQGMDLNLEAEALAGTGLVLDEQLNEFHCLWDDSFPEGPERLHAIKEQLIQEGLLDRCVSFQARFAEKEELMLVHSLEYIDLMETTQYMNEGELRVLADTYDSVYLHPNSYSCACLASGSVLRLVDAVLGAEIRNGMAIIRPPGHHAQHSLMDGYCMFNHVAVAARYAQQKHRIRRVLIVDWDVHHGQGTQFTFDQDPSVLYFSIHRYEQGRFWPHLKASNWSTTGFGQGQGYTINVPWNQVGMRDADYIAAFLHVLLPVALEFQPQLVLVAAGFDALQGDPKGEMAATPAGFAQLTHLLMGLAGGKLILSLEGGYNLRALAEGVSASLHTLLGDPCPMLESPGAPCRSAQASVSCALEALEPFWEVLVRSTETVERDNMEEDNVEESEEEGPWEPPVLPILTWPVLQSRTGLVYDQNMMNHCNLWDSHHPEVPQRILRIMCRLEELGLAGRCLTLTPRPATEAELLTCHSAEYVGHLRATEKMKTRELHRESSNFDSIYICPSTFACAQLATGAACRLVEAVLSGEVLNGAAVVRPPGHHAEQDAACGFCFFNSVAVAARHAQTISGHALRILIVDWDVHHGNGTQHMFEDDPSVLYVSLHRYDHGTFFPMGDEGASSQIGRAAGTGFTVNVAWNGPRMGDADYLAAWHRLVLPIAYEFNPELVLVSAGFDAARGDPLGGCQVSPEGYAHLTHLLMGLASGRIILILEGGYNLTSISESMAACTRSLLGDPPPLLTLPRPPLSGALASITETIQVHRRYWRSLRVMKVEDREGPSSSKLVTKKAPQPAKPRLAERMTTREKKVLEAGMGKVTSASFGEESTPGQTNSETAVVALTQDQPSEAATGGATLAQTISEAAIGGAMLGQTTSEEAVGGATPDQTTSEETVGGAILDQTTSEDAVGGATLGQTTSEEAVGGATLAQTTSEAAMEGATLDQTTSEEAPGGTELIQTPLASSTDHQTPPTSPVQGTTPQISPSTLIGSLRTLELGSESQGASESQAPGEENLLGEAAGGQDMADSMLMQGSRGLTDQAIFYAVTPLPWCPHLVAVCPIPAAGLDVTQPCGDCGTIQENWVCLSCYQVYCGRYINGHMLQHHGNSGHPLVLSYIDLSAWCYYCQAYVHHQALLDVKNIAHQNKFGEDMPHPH

Row | Compound | IC50 [1] | other results
1 | CCc1c(C#N)c(SC(C(N)=O)c2ccccc2)nc(N2CCC(NC(=O)CCCC(=O)NO)CC2)c1C#N (stereo unspecified) | 1070 nM | –
2 | CCc1c(C#N)c(SC(C(N)=O)c2ccccc2)nc(N2CCC(NC(=O)CCCCC(=O)NO)CC2)c1C#N (stereo unspecified) | > 5000 nM | –
3 | CCc1c(C#N)c(CN(C)C2CCN(c3ncc(C(=O)NO)cn3)CC2)nc(SC(C(N)=O)c2ccccc2)c1C#N (stereo unspecified) | 100 nM | –
4 | CCc1c(C#N)c(SC(C(N)=O)c2ccccc2)nc(N2CCN(c3ncc(C(=O)NO)cn3)CC2)c1C#N (stereo unspecified) | 60 nM | –
5 | CCc1c(C#N)c(SC(C(N)=O)c2ccccc2)nc(N2CCC(NC(=O)CCCC(=O)Nc3ccccc3N)CC2)c1C#N (stereo unspecified) | > 20000 nM | –
6 | CCc1c(C#N)c(SC(C(N)=O)c2ccccc2)nc(N2CCC(NC(=O)CCC(=O)Nc3ccc(C(=O)NO)cc3)CC2)c1C#N (stereo unspecified) | 1300 nM | –
7 | O=C(NO)C1CCN(CC(O)COC(Cn2c3ccccc3c3ccccc32)Cn2c3ccccc3c3ccccc32)CC1 (stereo unspecified) | – | IC50 [2]: 1320 nM
8 | CCc1c(C#N)c(SC(C(N)=O)c2ccccc2)nc(N2CCC(CNCc3ccc(/C=C/C(=O)NO)cc3)CC2)c1C#N (stereo unspecified) | – | ΔTm [3]: 11 °C; EC50 [4]: 1090 nM; inhibition in vivo at 45 mg/kg [5]: 95%
9 | CCc1c(C#N)c(SC(C(N)=O)c2ccccc2)nc(N2CCC(NCc3ccc(C(=O)Nc4ccccc4N)cc3)CC2)c1C#N (stereo unspecified) | > 20000 nM | –
10 | CCc1c(C#N)c(SC(C(N)=O)c2ccccc2)nc(N2CCC(CNc3ncc(C(=O)NO)cn3)CC2)c1C#N (stereo unspecified) | 140 nM | –
11 | CCc1c(C#N)c(S[C@H](C(N)=O)c2ccccc2)nc(N2CCC(CNCc3ccc(/C=C/C(=O)NO)cc3)CC2)c1C#N | – | ΔTm [3]: 9 °C; EC50 [4]: 1180 nM
12 | CCc1c(C#N)c(SC(C(N)=O)c2ccccc2)nc(N2CCC(NC(=O)CCC(=O)NO)CC2)c1C#N (stereo unspecified) | > 5000 nM | –
13 | CCc1c(C#N)c(SC(C(N)=O)c2ccccc2)nc(N2CCC(NCc3ccc(/C=C/C(=O)NO)cc3)CC2)c1C#N (stereo unspecified) | 130 nM | IC50 [6]: 660 nM; inhibition in vivo at 45 mg/kg [5]: 80%
14 | CCc1c(C#N)c(SC(C(N)=O)c2ccccc2)nc(N2CCC(NC(=O)CCCCCCC(=O)NO)CC2)c1C#N (stereo unspecified) | 300 nM | –
15 | CCc1c(C#N)c(SC(C(N)=O)c2ccccc2)nc(N2CCC(NC(=O)CCC(=O)Nc3ccc(/C=C/C(=O)NO)cc3)CC2)c1C#N (stereo unspecified) | 230 nM | –
16 | CCc1c(C#N)c(SC(C(N)=O)c2ccccc2)nc(N2CCN(Cc3ccc(/C=C/C(=O)NO)cc3)CC2)c1C#N (stereo unspecified) | 140 nM | –

Row | Compound | IC50 [1] | other results
17 | CCc1c(C#N)c(SC(C(N)=O)c2ccccc2)nc(N2CCC(NC(=O)CCCC(=O)NCc3ccc(C(=O)NO)cc3)CC2)c1C#N (stereo unspecified) | 330 nM | –
18 | CCc1c(C#N)c(SC(C(N)=O)c2ccccc2)nc(N2CCC(NC(=O)CCCCC(=O)Nc3ccc(C(=O)NO)cc3)CC2)c1C#N (stereo unspecified) | 280 nM | –
19 | CCc1c(C#N)c(SC(C(N)=O)c2ccccc2)nc(N(C)C2CCN(c3ncc(C(=O)NO)cn3)CC2)c1C#N (stereo unspecified) | 230 nM | IC50 [7]: 56.8 nM; inhibition [8]: 23.4%; inhibition [9]: 69.9%; inhibition [10]: 48.5%; IC50 [11]: 17.4 nM
20 | CCc1c(C#N)c(SC(C(N)=O)c2ccccc2)nc(N2CCC(NC(=O)CCCCCCCC(=O)NO)CC2)c1C#N (stereo unspecified) | 1160 nM | –
21 | CCc1c(C#N)c(SC(C(N)=O)c2ccccc2)nc(N2CCC(NCc3ccc(C(=O)NO)cc3)CC2)c1C#N (stereo unspecified) | > 5000 nM | –
22 | CCc1c(C#N)c(SC(C(N)=O)c2ccccc2)nc(N2CCC(NC(=O)CCC(=O)NCc3ccc(C(=O)NO)cc3)CC2)c1C#N (stereo unspecified) | 230 nM | –
23 | CCc1c(C#N)c(SC(C(N)=O)c2ccccc2)nc(N2CCC(Nc3ncc(C(=O)NO)cn3)CC2)c1C#N (stereo unspecified) | 190 nM | –
24 | CCc1c(C#N)c(SC(C(N)=O)c2ccccc2)nc(N2CCC(NC(=O)c3ccc(C(=O)Nc4ccccc4N)cc3)CC2)c1C#N (stereo unspecified) | > 20000 nM | –
25 | CCc1c(C#N)c(SC(C(N)=O)c2ccccc2)nc(N2CCC(NC(=O)c3ccc(C(=O)NO)cc3)CC2)c1C#N (stereo unspecified) | 870 nM | –
26 | CCc1c(C#N)c(SC(C(N)=O)c2ccccc2)nc(N2CCC(NCc3ccc(C(=O)NCc4ccc(C(=O)NO)cc4)cc3)CC2)c1C#N (stereo unspecified) | 250 nM | –
27 | CCc1c(C#N)c(SC(C(N)=O)c2ccccc2)nc(N2CCC(NCc3ccc(C(=O)NCc4ccc(/C=C/C(=O)NO)cc4)cc3)CC2)c1C#N (stereo unspecified) | 80 nM | –
28 | CCc1c(C#N)c(SC(C(N)=O)c2ccccc2)nc(N2CCC(NC(=O)Cc3ccc(C(=O)Nc4ccccc4N)cc3)CC2)c1C#N (stereo unspecified) | > 20000 nM | –
29 | CCc1c(C#N)c(SC(C(N)=O)c2ccccc2)nc(N2CCC(NC(=O)CCCCCC(=O)NO)CC2)c1C#N (stereo unspecified) | 210 nM | –
30 | CCc1c(C#N)c(SC(C(N)=O)c2ccccc2)nc(N(C)CCNCc2ccc(/C=C/C(=O)NO)cc2)c1C#N (stereo unspecified) | 160 nM | –
31 | CCc1c(C#N)c(SC(C(N)=O)c2ccccc2)nc(N2CCC(NC(=O)CCCC(=O)Nc3ccc(C(=O)NO)cc3)CC2)c1C#N (stereo unspecified) | 570 nM | –
